Experimental data taken from patent US20260272923A1, “NONSENSE MEDIATED DECAY INHIBITOR COMPOUNDS” (The Johns Hopkins University, priority 2023, published 2026).

Columns and labels:
[1] = test system: nonsense mediated decay (NMD); experiment: Targeted RNA sequencing of heterozygous indel mutations in NCI-H358 and LS180 cells; assay type: cell-based; details: NCI-H358 and LS180 cells treated in-vitro
Source text: (§1) It was next sought to evaluate whether LY3023414 could relieve repression of indel containing transcripts in cancer cells. The microsatellite stable NCI-H358 and microsatellite instable LS180 lung and colorectal cancer cell lines were chosen respectively. Nearly 40% of heterozygous indel and 25% of nonsense single base-pair mutation containing genes show increased expression of their mutant allele when treated with LY3023414 when evaluated by RNA sequencing (FIG. 2A). […] Heterozygous single nucleotide polymorphism (SNP) Ring Finger Protein 43 (RNF43) and drosha ribonuclease […] (DROSHA) served as controls, and allele ratios remain unchanged with treatment (FIG. 2B). To investigate for changes at the protein level, NCI-H358 cells were treated for 24 hours with either LY3023414 or DMSO.
(§2) Analyzing a wider set of 21 NMD sensitive genes from the RNA-Seq analysis in LS180 confirmed that LY3023414 and SMG1 specific inhibitor increase the same 18 genes with a greater than 80% re-expression rate, in both cell lines. […] As SMG1 inhibition is an off target effect for LY3023414, the concentrations used in this study may result in inhibition of a number of different kinases.
(§3) To confirm disruption of downstream signaling of SMG1, a western blot was performed with phosphorylation specific antibodies for UPF1.

[2] = test system: NMD targeted mutant protein (EXOC1, SPTAN1); experiment: Western blot of mutant proteins in NCI-H358 and LS180 cells; assay type: cell-based; details: NCI-H358 and LS180
Source text: as §1, §2, §3

[3] = test system: nonsense mediated decay (NMD); experiment: NCI-H358 and LS180 xenograft tumors in NOD-SCID mice, mutant RNA transcripts and tolerability; assay type: in vivo
[4] = test system: phosphorylated UPF1; experiment: Phospho-UPF1 specific western blot; assay type: cell-based; details: three different cell lines
Method: as §2, §3

[5] = target: SMG1 protein (Homo sapiens, UniProt Q96Q15); experiment: Kinativ assay; assay type: binding; details: 100 nM run in duplicate
Sequence of SMG1 protein (Q96Q15 whole entry): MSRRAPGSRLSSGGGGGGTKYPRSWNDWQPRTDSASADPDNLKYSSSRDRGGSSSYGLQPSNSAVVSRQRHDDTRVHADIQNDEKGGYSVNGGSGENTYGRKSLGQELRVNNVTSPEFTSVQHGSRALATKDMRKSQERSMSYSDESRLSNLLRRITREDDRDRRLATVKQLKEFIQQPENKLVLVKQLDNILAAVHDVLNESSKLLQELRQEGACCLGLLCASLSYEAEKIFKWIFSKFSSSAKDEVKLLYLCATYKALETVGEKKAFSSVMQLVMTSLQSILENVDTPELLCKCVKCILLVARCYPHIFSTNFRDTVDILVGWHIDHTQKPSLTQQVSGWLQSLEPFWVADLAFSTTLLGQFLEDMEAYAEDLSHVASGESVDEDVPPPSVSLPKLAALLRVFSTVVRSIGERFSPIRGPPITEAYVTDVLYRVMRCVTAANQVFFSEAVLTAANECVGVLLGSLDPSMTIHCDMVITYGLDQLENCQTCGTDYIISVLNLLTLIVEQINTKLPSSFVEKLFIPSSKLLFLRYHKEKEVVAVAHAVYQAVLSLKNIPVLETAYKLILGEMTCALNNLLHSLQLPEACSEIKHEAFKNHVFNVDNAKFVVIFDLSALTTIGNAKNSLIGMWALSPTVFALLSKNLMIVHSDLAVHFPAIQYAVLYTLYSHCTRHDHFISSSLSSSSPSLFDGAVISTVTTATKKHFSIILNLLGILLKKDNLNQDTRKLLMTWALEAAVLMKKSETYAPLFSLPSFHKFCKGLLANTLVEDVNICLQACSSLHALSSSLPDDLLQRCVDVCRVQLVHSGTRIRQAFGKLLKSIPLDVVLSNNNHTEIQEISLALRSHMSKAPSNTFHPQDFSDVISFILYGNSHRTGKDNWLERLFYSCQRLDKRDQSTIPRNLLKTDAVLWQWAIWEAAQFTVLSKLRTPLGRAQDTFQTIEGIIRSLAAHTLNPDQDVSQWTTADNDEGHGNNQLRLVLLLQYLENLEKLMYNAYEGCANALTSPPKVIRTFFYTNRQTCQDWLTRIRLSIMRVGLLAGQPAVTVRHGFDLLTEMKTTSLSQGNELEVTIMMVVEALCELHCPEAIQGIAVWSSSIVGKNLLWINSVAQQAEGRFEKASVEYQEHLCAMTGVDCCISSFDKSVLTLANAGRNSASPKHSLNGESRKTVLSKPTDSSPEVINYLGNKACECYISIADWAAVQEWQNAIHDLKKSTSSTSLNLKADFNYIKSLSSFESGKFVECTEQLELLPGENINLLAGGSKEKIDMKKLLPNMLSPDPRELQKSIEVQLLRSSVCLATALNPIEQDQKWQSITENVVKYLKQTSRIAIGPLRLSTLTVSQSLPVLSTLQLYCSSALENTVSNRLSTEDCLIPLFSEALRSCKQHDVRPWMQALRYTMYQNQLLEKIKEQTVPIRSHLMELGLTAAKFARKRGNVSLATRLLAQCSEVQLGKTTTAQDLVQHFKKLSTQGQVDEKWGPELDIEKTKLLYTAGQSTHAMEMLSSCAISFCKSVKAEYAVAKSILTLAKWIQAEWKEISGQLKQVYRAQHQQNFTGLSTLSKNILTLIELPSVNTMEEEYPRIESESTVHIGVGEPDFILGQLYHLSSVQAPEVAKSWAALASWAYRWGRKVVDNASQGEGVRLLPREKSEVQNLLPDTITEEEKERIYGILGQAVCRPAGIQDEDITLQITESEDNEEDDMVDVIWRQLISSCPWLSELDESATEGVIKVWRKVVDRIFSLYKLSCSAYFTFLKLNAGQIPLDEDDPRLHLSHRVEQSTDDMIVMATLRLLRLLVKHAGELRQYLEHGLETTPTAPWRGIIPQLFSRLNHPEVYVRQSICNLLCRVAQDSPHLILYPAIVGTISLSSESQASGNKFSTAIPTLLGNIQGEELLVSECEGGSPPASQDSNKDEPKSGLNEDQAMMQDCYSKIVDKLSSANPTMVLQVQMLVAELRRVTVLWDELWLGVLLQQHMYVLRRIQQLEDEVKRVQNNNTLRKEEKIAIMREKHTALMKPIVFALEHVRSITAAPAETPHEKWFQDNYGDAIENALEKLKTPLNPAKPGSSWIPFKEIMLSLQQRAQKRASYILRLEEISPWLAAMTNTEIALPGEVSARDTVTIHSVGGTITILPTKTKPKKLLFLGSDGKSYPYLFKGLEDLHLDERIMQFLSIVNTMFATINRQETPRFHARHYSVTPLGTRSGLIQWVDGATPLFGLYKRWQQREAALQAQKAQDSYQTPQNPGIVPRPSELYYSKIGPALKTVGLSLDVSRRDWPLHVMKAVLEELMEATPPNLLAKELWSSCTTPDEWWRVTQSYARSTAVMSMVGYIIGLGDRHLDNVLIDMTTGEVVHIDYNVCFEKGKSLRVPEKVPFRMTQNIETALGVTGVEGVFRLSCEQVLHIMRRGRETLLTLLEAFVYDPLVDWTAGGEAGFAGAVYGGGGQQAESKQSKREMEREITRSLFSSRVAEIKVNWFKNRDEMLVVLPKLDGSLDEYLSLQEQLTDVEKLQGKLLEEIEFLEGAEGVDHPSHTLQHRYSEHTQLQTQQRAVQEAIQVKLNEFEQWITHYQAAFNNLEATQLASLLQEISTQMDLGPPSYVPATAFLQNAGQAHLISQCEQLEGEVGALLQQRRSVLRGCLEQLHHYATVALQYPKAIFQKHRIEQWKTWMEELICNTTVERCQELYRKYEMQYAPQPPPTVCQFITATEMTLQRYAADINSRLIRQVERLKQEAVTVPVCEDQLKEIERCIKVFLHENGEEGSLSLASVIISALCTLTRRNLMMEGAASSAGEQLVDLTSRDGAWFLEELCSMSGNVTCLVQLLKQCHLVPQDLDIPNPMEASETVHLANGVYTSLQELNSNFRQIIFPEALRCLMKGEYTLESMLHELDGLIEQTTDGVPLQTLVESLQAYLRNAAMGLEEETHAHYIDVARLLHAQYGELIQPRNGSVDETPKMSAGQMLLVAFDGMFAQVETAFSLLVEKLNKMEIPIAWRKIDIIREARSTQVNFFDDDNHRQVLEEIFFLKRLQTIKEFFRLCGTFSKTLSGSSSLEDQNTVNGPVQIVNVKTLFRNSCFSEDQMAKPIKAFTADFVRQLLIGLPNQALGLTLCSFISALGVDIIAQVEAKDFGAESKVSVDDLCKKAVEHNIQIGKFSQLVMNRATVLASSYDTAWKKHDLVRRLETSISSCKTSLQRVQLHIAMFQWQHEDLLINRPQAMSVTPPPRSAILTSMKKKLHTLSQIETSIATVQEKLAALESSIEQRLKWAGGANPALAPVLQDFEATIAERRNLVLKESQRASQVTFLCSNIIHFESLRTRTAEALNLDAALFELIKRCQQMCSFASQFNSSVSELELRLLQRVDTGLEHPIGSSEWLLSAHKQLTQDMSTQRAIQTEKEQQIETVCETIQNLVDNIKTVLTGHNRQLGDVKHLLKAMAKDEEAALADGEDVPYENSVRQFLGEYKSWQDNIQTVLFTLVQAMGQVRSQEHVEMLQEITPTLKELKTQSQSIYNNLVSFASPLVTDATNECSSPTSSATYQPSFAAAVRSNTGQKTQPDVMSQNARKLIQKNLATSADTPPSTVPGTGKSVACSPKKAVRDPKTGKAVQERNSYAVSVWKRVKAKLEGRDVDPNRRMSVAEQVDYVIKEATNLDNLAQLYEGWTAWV

[6] = Physical properties related to solubility; assay type: physicochemical; details: compared with previously made SMG1 specific inhibitors
[7] = test system: NCI-H358 and LS180 cells; experiment: MHC class I HLA presentation of mutant specific peptides by quantitative HPLC-Mass Spectrometry; assay type: cell-based; details: 24 hours in-vitro, pan-HLA immunoprecipitation
Method: Downregulating mutated genes with frame shifts via NMD is one mechanism employed by cancer cells to avoid immune surveillance. To confirm the small molecule could alter the immune landscape of a tumor, cell surface presentation of known mutant proteins was assessed in NCI-H358 and LS180 cells. Cells were treated in-vitro for 24 hours with DMSO or the compound of Formula I in duplicate, cross linked and immunoprecipitated with pan-HLA antibodies to obtain cell surface MHC presented peptides. 187 mutation specific peptides were initially identified that could be potentially presented by using the union of NetMHC and Predictor of Immunogenic Epitopes (PRIME) predictions. These predictions were tested by performing HPLC Mass Spectromety (MS) on cells that were treated in-vitro for 24 hours with DMSO or the compound of Formula I, cross linked and immunoprecipitated with pan-HLA antibodies to obtain cell surface MHC presented peptides. Based on those results, heavy isotope labeled peptides were designed for 14 peptides from NCI-H358, and 24 peptides from LS180 cells with high confidence of MS detection. These heavy labeled peptides were then used as internal standard to perform quantitative HPLC-Mass Spectrometry. […] This is consistent with re-expression of mutant protein shown previously by western blot (FIGS. 3C and 4D). […]

[8] = test system: NCI-H716 and NCI-2228; experiment: Interferon gamma ELISA in co-culture with human CD8+ T-cells and TP53-CD3 bispecific antibody; assay type: cell-based
[9] = test system: NCI-H716 and NCI-2228 cell lines with and without HLA-A24 expression; experiment: Luciferase cell killing co-culture assay; assay type: cell-based; details: with human CD8+ T-cells and bispecific antibody
Method: To determine whether this relief of repression is targetable, a bispecific antibody targeting wild type TP53 and CD3 was employed. […] To assess if these novel antigens could be utilized for immune driven cell specific killing, NCI-H716 and NCI-2228 cell lines with and without HLA-A24 expression were labeled with luciferase. […] To establish this effect remained in-vivo, NCI-H716 cells expressing HLA-A24 and luciferase were placed orthotopically in NSG mice. Tumor size was measured by luciferase readings via bioluminescence imaging (BLI).

[10] = test system: LLC (Lewis Lung Cancer); experiment: Syngeneic LLC tumor mouse model; assay type: in vivo, mice
Source text: Murine RENCA (renal) and LLC (Lewis Lung Cancer) cell lines were chosen as they harbor a large number of out of frame indel mutations based on whole exome DNA sequencing (WES) (Table SX-RENCA and LLC mutations). It was confirmed that treatment of these cell lines could stop NMD mediated repression of mutant RNA, and induced expression of exogenous genes controlled by NMD by real time PCR. […]

[11] = test system: RENCA (renal); experiment: Syngeneic RENCA tumor mouse model; assay type: in vivo, mice
Method: Confident NMD inhibition with the compound of Formula I was leading to in-vivo changes to the tumor and its immune environment and it was evaluated whether these alterations could be taken advantage of in an immune competent system. Murine RENCA (renal) and LLC (Lewis Lung Cancer) cell lines were chosen as they harbor a large number of out of frame indel mutations based on whole exome DNA sequencing (WES) (Table SX-RENCA and LLC mutations). It was confirmed that treatment of these cell lines could stop NMD mediated repression of mutant RNA, and induced expression of exogenous genes controlled by NMD by real time PCR. Cells were placed in the mammary fat pad of C57BL/6N (LLC also known as LL2) and BALB/c (RENCA) mice, randomly sorted animals after tumors became palpable ensuring to balance the tumor size of each group, and then treated with vehicle or the compound of Formula I (FIG. 6A).

[12] = test system: melanoma line B16-F10; experiment: Syngeneic B16-F10 melanoma model; assay type: in vivo

## CNC(=O)Nc1ccc(-c2cc(-c3ccnc(Nc4ccc(Cl)c(S(=O)(=O)N5CCNCC5)c4)n3)ccn2)cc1 [compound of Formula I]
[1]
  bioactive concentration range (dose response curves): bioactive in the nanomolar range
[2]
  mutant protein expression (western blot): induce expression of the NMD targeted mutant protein
[3]; doses up to 50 mg/kg
  toxicity related behavior (e.g., hunching, lethargy): did not show any toxicity related behavior
[3]; intraperitoneal (IP)
  mutant transcript levels in tumors relative to untreated mice: increases in mutant transcript levels
[4]
  amount of phosphorylated UPF1: strongly decreased the amount of phosphorylated UPF1
[5]
  specificity for SMG1 over other kinases: maintains high specificity for SMG1 protein over other kinases
[6]
  physical properties related to solubility: more desirable physical properties related to solubility
[7]
  cell surface MHC presentation of mutant specific neoantigen: presence of a neoantigen specific to the mutant alleles of two genes in NCI-H358 and two other genes in LS180 cells
[8]; with bispecific antibody and human CD8+ T-cells
  interferon gamma release: increase in interferon gamma release
[8]; without bispecific antibody
  interferon gamma levels: no change in interferon gamma levels
[9]
  cell killing: cell killing only in cells with HLA-A24 present
[10]; C57BL/6N background
  weight loss: No weight loss
[10]; C57BL/6N mice, 30 mg/kg
  tumor growth: Significant slowing of tumor growth
[10]; immunodeficient C57BL/6N SCID mice
  tumor growth in immunosuppressed mice: minimal or no difference in cell growth
[11]; BALB/c background, within tolerable limits
  weight loss: Some weight loss
[11]; BALB/c mice, 20 mg/kg
  tumor growth: Significant slowing of tumor growth
[11]; immunodeficient NSG (BALB/c) mice
  tumor growth in immunosuppressed mice: minimal or no difference in cell growth
[12]
  tumor volume: showed a change in tumor volume
